Test results as given in patent US10640486B2, “Heteroarylcarboxamide derivatives as plasma kallikrein inhibitors” (Boehringer Ingelheim International GmbH, priority 2015, dated 2020).

target: human Plasma Kallikrein (KLKB1) (Homo sapiens (Human), UniProt P03952); assay: Inhibition of KLKB1 endpoint assay; assay type: biochemical; conditions: fluorogenic substrate H-Pro-Phe-Arg-AMC, 1 hr at Room Temperature, read-out: IC50 measurements for the inhibition of human Plasma Kallikrein (KLKB1)
Description: The ability of compounds of Formula I to inhibit plasma kallikrein (KLKB1), Factor XIIa (FXIIa), Factor XIa (FXIa), Factor Xa (FXa), Factor IIa (alpha-thrombin; FIIa), plasmin, trypsin, tissue kallikrein 1 (KLK1), Factor VIIa (FVIIa), or FVIIa complexed with Tissue Factor, phospholipids and CaCl2 (FVIIa/TF/PL/CaCl2) was determined using the following biochemical assays in assay buffer (100 mM Tris, 150 mM NaCL, adjusted to a pH of 7.8 with HCl, and containing 0.1% (w/v) BSA and 0.05% (v/v) Tween20) in the presence of 1% (v/v) DMSO:
Evaluation of the Inhibition of KLKB1 Using an Endpoint Assay
Subsequently, PPACK II (Calbiochem) was added as a stop solution to achieve a final concentration of 1 μM and fluorescence was measured using an Envision Reader (PerkinElmer) with the wavelength excitation setting of 355 nm and the wavelength emission setting of 460 nm.
The IC50 values were obtained with the aid of the inhibition of KLKB1 endpoint assay described above.

human Plasma Kallikrein (KLKB1), sequence (P03952 391-638): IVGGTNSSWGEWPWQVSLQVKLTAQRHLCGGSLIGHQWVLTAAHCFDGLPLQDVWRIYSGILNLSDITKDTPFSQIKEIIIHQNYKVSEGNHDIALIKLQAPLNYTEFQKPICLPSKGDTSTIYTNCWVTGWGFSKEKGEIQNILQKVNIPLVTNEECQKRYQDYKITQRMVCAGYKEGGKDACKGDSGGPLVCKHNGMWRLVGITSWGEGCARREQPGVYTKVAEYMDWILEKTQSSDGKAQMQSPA
human Plasma Kallikrein (KLKB1), sequence (P03952 20-390 partner): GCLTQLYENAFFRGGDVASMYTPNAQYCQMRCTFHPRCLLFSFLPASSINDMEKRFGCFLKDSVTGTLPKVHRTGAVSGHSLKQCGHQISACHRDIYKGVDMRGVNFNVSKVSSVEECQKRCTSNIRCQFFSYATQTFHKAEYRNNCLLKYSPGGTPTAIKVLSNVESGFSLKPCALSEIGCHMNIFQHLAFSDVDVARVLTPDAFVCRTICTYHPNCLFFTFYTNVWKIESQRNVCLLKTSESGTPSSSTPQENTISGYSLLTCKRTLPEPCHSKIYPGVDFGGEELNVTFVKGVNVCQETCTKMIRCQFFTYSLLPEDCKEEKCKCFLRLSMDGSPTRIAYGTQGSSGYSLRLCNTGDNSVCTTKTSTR

Compound	IC50 [nM]
Nc1nccc2c1CCC2NC(=O)c1cnn(Cc2ccc(CN3C[C@@H]4C[C@@H]4C3=O)cc2)c1 (single isomer, unassigned) [Example 48]	69
Nc1nccc2c1CCC2NC(=O)c1cnn(Cc2ccc(CN3C[C@@H]4C[C@@H]4C3=O)cc2)c1 (single isomer, unassigned) [Example 49]	2
Nc1nccc2c1CCC2NC(=O)c1cn(Cc2ccc(CN3C[C@@H]4C[C@@H]4C3=O)cc2)nc1C(F)(F)F (single isomer, unassigned) [Example 50]	1
Nc1nccc2c1CCC2NC(=O)c1cn(Cc2ccc(CN3C[C@@H]4C[C@@H]4C3=O)cc2)nc1C(F)(F)F (single isomer, unassigned) [Example 51]	89
Nc1nccc2c1CC[C@H]2NC(=O)c1cnn(Cc2ccc(CN3CC4CC4C3=O)c(C(F)(F)F)c2)c1 (single isomer, unassigned) [Example 52]	41
Nc1nccc2c1CC[C@H]2NC(=O)c1cnn(Cc2ccc(CN3CC4CC4C3=O)c(C(F)(F)F)c2)c1 (single isomer, unassigned) [Example 53]	1
Nc1nccc2c1CCC2NC(=O)c1cnn(Cc2ccc(CN3C[C@H]4C[C@H]4C3=O)cc2)c1 (single isomer, unassigned) [Example 54]	46
Nc1nccc2c1CCC2NC(=O)c1cnn(Cc2ccc(CN3C[C@H]4C[C@H]4C3=O)cc2)c1 (single isomer, unassigned) [Example 55]	490
Cc1cc(Cn2cc(C(=O)N[C@@H]3CCc4c3ccnc4N)nn2)ccc1N1CCN2CCCCC2C1=O (single isomer, unassigned) [Example 56]	1200
Cc1cc(Cn2cc(C(=O)N[C@@H]3CCc4c3ccnc4N)nn2)ccc1N1CCN2CCCCC2C1=O (single isomer, unassigned) [Example 57]	6200
Cc1cc(Cn2cc(C(=O)N[C@@H]3CCc4c3ccnc4N)nn2)ccc1N1CCN2CCCC2C1=O (single isomer, unassigned) [Example 58]	1600
Cc1cc(Cn2cc(C(=O)N[C@@H]3CCc4c3ccnc4N)nn2)ccc1N1CCN2CCCC2C1=O (single isomer, unassigned) [Example 59]	2200
Cc1cc(Cn2cc(C(=O)N[C@@H]3CCc4nc(N)ccc43)cn2)ccc1CN1CC2CC2C1=O (single isomer, unassigned) [Example 67]	470
Cc1cc(Cn2cc(C(=O)N[C@@H]3CCc4nc(N)ccc43)cn2)ccc1CN1CC2CC2C1=O (single isomer, unassigned) [Example 68]	10
CC(c1ccc(N2CC3CC3C2)nc1)n1cc(C(=O)N[C@@H]2CCc3c2ccnc3N)cn1 (single isomer, unassigned) [Example 72]	10
CC(c1ccc(N2CC3CC3C2)nc1)n1cc(C(=O)N[C@@H]2CCc3c2ccnc3N)cn1 (single isomer, unassigned) [Example 73]	6
Nc1ccc2c(n1)CC[C@H]2NC(=O)c1cnn(Cc2ccc(CN3C[C@H]4C[C@H]4C3=O)cc2)c1 [Example 1, 1-[4-((1R,5S)-2-Oxo-3-aza-bicyclo[3.1.0]hex-3-ylmethyl)-benzyl]-1H-pyrazole-4-carboxylic acid ((R)-2-amino-6,7-dihydro-5H-[1]pyrindin-5-yl)-amide]	530
Nc1ccc2c(n1)CCC2NC(=O)c1cnn(Cc2ccc(N3CCN4CCCC4C3)cc2)c1 (stereo not shown) [Example 2]	2100
Nc1ccc2c(n1)CC[C@H]2NC(=O)c1cnn(Cc2ccc(CN3C[C@@H]4C[C@@H]4C3=O)cc2)c1 [Example 3]	17
Nc1ccc2c(n1)CCC2NC(=O)c1cn(Cc2ccc(CN3CC4CC4C3=O)cc2)nc1C(F)(F)F (stereo not shown) [Example 4]	63

Compound	IC50 [nM]
Nc1nccc2c1CCC2NC(=O)c1cnn(Cc2ccc(CN3CC4CC4C3=O)cc2)c1 (stereo not shown) [Example 5]	10
Nc1cc2c(cn1)CCC2NC(=O)c1cnn(Cc2ccc(CN3CC4CC4C3=O)cc2)c1 (stereo not shown) [Example 6]	71
Nc1ccc2c(n1)CC[C@H]2NC(=O)c1cn(Cc2ccc(CN3C[C@H]4C[C@H]4C3=O)cc2)nc1C(F)(F)F [Example 7]	420
Nc1ccc2c(n1)CC[C@H]2NC(=O)c1cn(Cc2ccc(CN3C[C@@H]4C[C@@H]4C3=O)cc2)nc1C(F)(F)F [Example 8]	14
Nc1ccc2c(n1)CCC2NC(=O)c1cn(Cc2ccc(N3CCN4CCCCC4C3=O)cc2)nn1 (stereo not shown) [Example 9]	3200
Nc1ccc2c(n1)CCC2NC(=O)c1cn(Cc2ccc(Cn3cc4c(n3)CCOC4)cc2)nn1 (stereo not shown) [Example 10]	560
Nc1ccc2c(n1)CCC2NC(=O)c1cn(Cc2ccc(CN3CCN4C(=O)CCCC4C3)cc2)nn1 (stereo not shown) [Example 11]	> 10000
Nc1nccc2c1C(NC(=O)c1cn(Cc3ccc(N4CCN5CCCCC5C4=O)cc3)nn1)CC2 (stereo not shown) [Example 12]	> 10000
Nc1cc2c(cn1)C(NC(=O)c1cn(Cc3ccc(N4CCN5CCCCC5C4=O)cc3)nn1)CC2 (stereo not shown) [Example 13]	> 10000
Nc1ccc2c(n1)CCC2NC(=O)c1cn(Cc2ccc(CN3CCN4CCCC4C3=O)cc2)nn1 (stereo not shown) [Example 14]	5900
Nc1ccc2c(n1)CCC2NC(=O)c1cnn(Cc2ccc(CN3CC4CC4C3=O)cc2)c1 (stereo not shown) [Example 15]	81
Cc1nn(Cc2ccc(CN3CC4CC4C3=O)cc2)cc1C(=O)NC1CCc2nc(N)ccc21 (stereo not shown) [Example 16]	85
Cc1cc(N)nc2c1C(NC(=O)c1cnn(Cc3ccc(CN4CC5CC5C4=O)cc3)c1)CC2 (stereo not shown) [Example 17]	42
Cc1cc(Cn2cc(C(=O)NC3CCc4nc(N)ccc43)nn2)ccc1N1CCN2CCCCC2C1=O (stereo not shown) [Example 18]	1200
Cc1cc(N)nc2c1C(NC(=O)c1cn(Cc3ccc(N4CCN5CCCCC5C4=O)cc3)nn1)CC2 (stereo not shown) [Example 19]	2600
Nc1ccc2c(n1)CC[C@H]2NC(=O)c1cnn(Cc2ccc(CN3CC4CC4C3=O)c(C(F)(F)F)c2)c1 (stereo partly shown) [Example 22]	19
Nc1nccc2c1CC[C@H]2NC(=O)c1cnn(Cc2ccc(CN3CC4CC4CC3=O)cc2)c1 (stereo partly shown) [Example 23]	2
Nc1cc(C(F)(F)F)c2c(n1)CCC2NC(=O)c1cnn(Cc2ccc(CN3CC4CC4C3=O)cc2)c1 (stereo not shown) [Example 24]	3300
Nc1ccc2c(n1)CCC2NC(=O)c1cn(Cc2ccc(-n3cc4c(n3)CCOC4)cc2)nn1 (stereo not shown) [Example 27]	> 10000
Nc1ccc2c(n1)CCC2NC(=O)c1cn(Cc2ccc(C3CC4CCCN4C3=O)cc2)nn1 (stereo not shown) [Example 29]	2200

Compound	IC50 [nM]
Nc1ccc2c(n1)CC[C@H]2NC(=O)c1cn(Cc2ccc(N3CC4CC4C3)nc2)nn1 (stereo partly shown) [Example 32]	24
Nc1nccc2c1CC[C@H]2NC(=O)c1cn(Cc2ccc(N3CC4CC4C3)nc2)nn1 (stereo partly shown) [Example 33]	2
Nc1nccc2c1CC[C@H]2NC(=O)c1cn(Cc2ccc(N3CC(=O)N4CCCC4C3)nc2)nn1 (stereo partly shown) [Example 34]	390
Nc1nccc2c1CC[C@H]2NC(=O)c1cn(Cc2ccc(N3CCN4C(=O)COCC4C3)nc2)nn1 (stereo partly shown) [Example 35]	600
Nc1nccc2c1CC[C@H]2NC(=O)c1cnn(Cc2ccc(N3CC4CC4C3)nc2C(F)(F)F)c1 (stereo partly shown) [Example 36]	1
Nc1ccc2c(n1)CC[C@H]2NC(=O)c1cnn(Cc2ccc(N3CC4CC4C3)nc2C(F)(F)F)c1 (stereo partly shown) [Example 37]	8
Nc1nccc2c1CC[C@H]2NC(=O)c1cn(Cc2ccc(N3CC4CC4C3)nc2C(F)(F)F)nn1 (stereo partly shown) [Example 38]	1
Nc1ccc2c(n1)CC[C@H]2NC(=O)c1cn(Cc2ccc(N3CC4CC4C3)nc2C(F)(F)F)nn1 (stereo partly shown) [Example 39]	14
Nc1ccc2c(n1)CC[C@H]2NC(=O)c1cnn(Cc2cnc(N3CC4CC4C3)cc2C(F)(F)F)c1 (stereo partly shown) [Example 40]	9
Nc1nccc2c1CC[C@H]2NC(=O)c1cnn(Cc2cnc(N3CC4CC4C3)cc2C(F)(F)F)c1 (stereo partly shown) [Example 41]	1
Nc1nccc2c1CC[C@H]2NC(=O)c1cn(Cc2cnc(N3CC4CC4C3)cc2C(F)(F)F)nn1 (stereo partly shown) [Example 42]	1
Nc1ccc2c(n1)CC[C@H]2NC(=O)c1cn(Cc2cnc(N3CC4CC4C3)cc2C(F)(F)F)nn1 (stereo partly shown) [Example 43]	13
Cc1cc(N2CC3CC3C2)ncc1Cn1cc(C(=O)N[C@@H]2CCc3nc(N)ccc32)cn1 (stereo partly shown) [Example 44]	30
Cc1cc(N2CC3CC3C2)ncc1Cn1cc(C(=O)N[C@@H]2CCc3c2ccnc3N)cn1 (stereo partly shown) [Example 45]	4
Cc1cc(N2CC3CC3C2)ncc1Cn1cc(C(=O)N[C@@H]2CCc3nc(N)ccc32)nn1 (stereo partly shown) [Example 46]	38
Cc1cc(N2CC3CC3C2)ncc1Cn1cc(C(=O)N[C@@H]2CCc3c2ccnc3N)nn1 (stereo partly shown) [Example 47]	4
Nc1ccc2c(n1)CCC2NC(=O)c1cn(Cc2ccc(CN3CC4CCCN4C3=O)cc2)nn1 (stereo not shown) [Example 61, 1-[4-(3-Oxo-tetrahydro-pyrrolo[1,2-c]imidazol-2-ylmethyl)-benzyl]-1H-[1,2,3]triazole-4-carboxylic acid (2-amino-6,7-dihydro-5H-[1]pyrindin-5-yl)-amide]	340
Nc1ccc2c(n1)CCC2NC(=O)c1cn(Cc2ccc(CN3CC4CC4C3=O)cc2)nn1 (stereo not shown) [Example 62, 1-[4-(2-Oxo-3-aza-bicyclo[3.1.0]hex-3-ylmethyl)-benzyl]-1H-[1,2,3]triazole-4-carboxylicacid (2-amino-6,7-dihydro-5H-[1]pyrindin-5-yl)-amide]	410
